Reference: patent US9550742B2, “11-OXO-10,11-dihydrodibenzo[B,F][1,4]thiazepine S-oxide derivatives and their use as dopamine D2 receptor antagonists” (The United States of America, as Represented by the …, priority 2013, dated 2017)
Like-named read-outs stand apart in the source and are kept apart here.

How the values were obtained:
[1] = molecular target: T1, D2 DAR (Homo sapiens, UniProt P14416); experiment: D2 Ca^2+ screen assay (calcium accumulation, HEK293 T-REx with Gqi5); assay type: cell-based
T1 construct: expressed in transfected cells; host or cells: HEK293 T-REx, Tet-inducible, with chimeric G-protein Gqi5
Procedure: The resting concentration of calcium ions (Ca^2+) in the cells' cytoplasm is normally maintained in the range of 10-100 nM. To maintain this low concentration, Ca^2+ is actively pumped from the cytosol to the extracellular space and into the endoplasmic reticulum (ER), and sometimes into the mitochondria. Signaling occurs when the cell is stimulated to release Ca^2+ from intracellular stores. The most common signaling pathway that increases cytoplasmic calcium concentration is the phospholipase C (PLC) pathway. […] IP3 diffuses to the ER, binds to its receptor (IP3 receptor), which is a Ca^2+ channel and, thus, releases Ca^2+ from the ER to the cytosol. To measure this cytosolic Ca^2+ accumulation, we used the Screen Quest™ Fluo-8 Calcium Assay Kit (AAT Bioquest, Sunnyvale, Calif.). Acetoxymethyl (AM) esters bound to Fluo-8™ dye are non-polar molecules that easily cross live cell membranes transporting the dye inside the cell, and are then rapidly hydrolyzed by cellular esterases inside live cells. As Fluo-8™ is freed from AM esters, it binds to Ca^2+ and emits a fluorescent signal at 514 nm that escalates with increasing cytosolic Ca^2±. To measure this calcium flux signal, we used the Functional Drug Screening System (FDSS) (Hamamatsu, Japan), a high throughput screening device that allows optical detection of signal transmissions within living cells in a time-resolving fashion. […] Quest Fluo-8™ calcium reagent was freshly prepared prior to adding to the cells (lyophilized Fluo-8™ dye provided with the kit was re-suspended in 200 μL DMSO as a 500× stock and stored at −20° C.). 2 μL/well of Quest Fluo-8™ calcium dye diluted in HBSS +10 mM HEPES buffer (for every 10 mL buffer, 1 mL of 10× quencher provided in the kit and 20 μL of 500×DMSO stock dye were added) was added to cells with a Multi-Drop Combi (ThermoScientific) and incubated for 45-90 min in the dark at ambient temperature. Then, the plates were introduced into the FDSS where they were pinned with 23 nL of test compound or dopamine controls and were read by FDSS in non-stimulated mode for 180 sec for detection of agonists. […]

[2] = molecular target: T2, D2 GPCR receptor (DAR) (Homo sapiens, UniProt P14416); experiment: D2 beta-arrestin functional assay (PathHunter, CHO); assay type: cell-based; details: for D3/D2 beta-arrestin IC50ratio: ratio of D3 (Example 4) to D2 (Example 2) beta arrestin assay
T2 construct: host or cells: CHO PathHunter β-arrestin cells
Source text: For a secondary-screen and selectivity assays, DAR PathHunter® β-arrestin GPCR cell lines from DiscoveRx (Fremont, Calif.). In this) were used. In the D2 Receptor PathHunter® β-arrestin GPCR cell line, the D2 GPCR receptor (DAR) is overexpressed and fused with a small 42-amino acid fragment of β-galactosidase called ProLink™ on a CHO cellular background expressing a fusion protein of β-arrestin and a larger N-terminal deletion mutant of β-galactosidase (“enzyme acceptor”). When DAR is activated by dopamine, it stimulates binding of β-arrestin to the ProLink-tagged DAR and the two complementary parts of β-galactosidase form a functional enzyme. When substrate (PathHunter® Detection reagent) is added, β-galactosidase hydrolyzes it and generates a chemiluminescent signal.
D2 Receptor PathHunter® β-arrestin cells were seeded at 2,100 cells/well in 3 μL/well media (DiscoveRx Plating Reagent 2) with MultiDrop Combi dispenser (Thermo Scientific, Logan, Utah) onto white tissue culture treated 1,536-well Aurora plates (Brooks Automation, Chelmsford, Mass.) and allowed to attach overnight at 37° C., 5% CO2. Next, 23 nL/well of compound solutions in DMSO were added with a pintool transfer (Kalypsis, San Diego, Calif.). The cells were stimulated by compounds for 90 min at 37° C., 5% CO2, after which 1.5 μL/well of DiscoveRx detection reagent was added with BioRAPTR FRD dispenser. The detection reagent was prepared by mixing of Galacton Star Substrate, Emerald II solution and PathHunter buffer (supplied by the assay kit) together at a 1:5:19 proportion just prior to dispensing. The plates were incubated at ambient temperature for 1 hr, and the luminescent signal was read on a ViewLux plate reader (PerkinElmer, Waltham, Mass.).

[3] = molecular target: D2L human dopamine receptors (Homo sapiens, UniProt P14416); experiment: D2 binding assay ([^3H]methylspiperone, HEK membranes); details: for D3/D2 binding Ki ratio: ratio of D3 (Example 5) to D2 (Example 3) binding assay
Procedure: Compounds were tested for differences in affinity between three dopamine receptor subtypes using radio-labeled ligand binding assays. The first assay determined the Ki value of the compounds for the D2 DAR subtype using stable HEK cell lines expressing the D2L human dopamine receptors (Codex Biosciences, Gaithersburg, Md.). Cells were cultured in Dulbecco's modified Eagle's Medium containing 10% FBS, 1,000 units/mL Penicillin, 1,000 mg/mL Streptomycin, 100 mM Sodium Pyruvate, 1 μg/mL Gentamicin, and […] G418. All cells were maintained at 37° C. in 5% CO2 and 90% humidity. For radioligand binding assays, cells were removed mechanically using calcium and magnesium-free Earle's Balanced Salt Solution (EBSS(−)). Intact cells were collected by centrifugation and then lysed with 5 mM Tris-HCl and 5 mM MgCl2 at pH 7.4 in a glass homogenizer. Homogenates were centrifuged at 20,000×g for 30 minutes. The membranes were re-suspended in EBSS (pH 7.4) and protein concentration was determined using a Bradford assay according to the manufacturer's recommendations (Bio-Rad). Membranes were diluted to 24 mg/mL. […] Membrane preparations were incubated for 90 min at room temperature with various concentrations of radioligand in a reaction volume of 250 μL EBSS containing 200 mM sodium metabisulfite. Non-specific binding was determined in the presence of 4 μM (+)-butaclamol. Bound ligand was separated from unbound by filtration through GF/C filters using a PerkinElmer cell harvester with ice cold EBSS (4 washes) and quantified on a Top-count (PerkinElmer) after addition of scintillation solution. […] In order to determine the affinity of a given compound for a receptor type, competition-binding assays were performed. […] Reactions were incubated, terminated, and quantified as indicated above.

[4] = molecular target: D3 human dopamine receptors (Homo sapiens, UniProt P35462); experiment: D3 binding assay ([^3H]methylspiperone, HEK293 membranes)
Procedure: Cells were cultured in Dulbecco's modified Eagle's Medium containing 10% FBS, 1,000 units/mL Penicillin, 1,000 mg/mL Streptomycin, 100 mM Sodium Pyruvate, 1 μg/mL Gentamicin, and […] G418. All cells were maintained at 37° C. in 5% CO2 and 90% humidity. For radioligand binding assays, cells were removed mechanically using calcium and magnesium-free Earle's Balanced Salt Solution (EBSS(−)). Intact cells were collected by centrifugation and then lysed with 5 mM Tris-HCl and 5 mM MgCl2 at pH 7.4 in a glass homogenizer. […] Membrane preparations were incubated for 90 min at room temperature with various concentrations of radioligand in a reaction volume of 250 μL EBSS containing 200 mM sodium metabisulfite. […] Bound ligand was separated from unbound by filtration through GF/C filters using a PerkinElmer cell harvester with ice cold EBSS (4 washes) and quantified on a Top-count (PerkinElmer) after addition of scintillation solution. […] In order to determine the affinity of a given compound for a receptor type, competition-binding assays were performed. […] Reactions were incubated, terminated, and quantified as indicated above.

[5] = molecular target: D3 dopamine receptor (DAR) (Homo sapiens, UniProt P35462); experiment: D3 beta-arrestin functional assay (PathHunter, CHO); assay type: cell-based; details: dose response curve; read-out: D3 β-arrestin assay AC50
Source text: A CHO cell line was engineered to overexpress D3 dopamine receptor (DAR) and fused with a small 42-amino acid fragment of β-gal called ProLink™. In addition, these cells stably express a fusion protein of β-arrestin and a larger N-terminal deletion mutant of β-galactosidase (“enzyme acceptor”). When DAR is activated by dopamine, it stimulates binding of β-arrestin to ProLink-tagged DARs, and the two complementary parts of β-galactosidase form a functional enzyme. When substrate (PathHunter® Detection reagent) is added, βgalactosidase hydrolyzes it and generates a chemiluminescent signal.
For the 1,536-well assay, D3 PathHunter® β-arrestin cells were seeded at 2,100 cells/well in 3 μL/well media (DiscoveRx Plating Reagent 2) with MultiDrop Combi dispenser (Thermo Scientific, Logan, Utah) onto white tissue culture treated 1,536-well Aurora plates (Brooks Automation, Chelmsford, Mass.) and allowed to attach overnight at 37° C., 5% CO2. Next, 23 nL/well of compound solutions in DMSO were added with a pintool transfer (Kalypsis, San Diego, Calif.). The cells were stimulated by compounds for 90 minutes at 37° C., 5% CO2, after which 1.5 μL/well of DiscoveRx detection reagent was added with BioRAPTR FRD dispenser. […] The plates were incubated at ambient temperature for 1 h, and the luminescent signal was read on ViewLux plate reader (PerkinElmer, Waltham, Mass.).

[6] = dopamine D2 calcium release assay of Example 1, read-out: Ca^2+ AC50

T2 sequence (P14416 whole entry): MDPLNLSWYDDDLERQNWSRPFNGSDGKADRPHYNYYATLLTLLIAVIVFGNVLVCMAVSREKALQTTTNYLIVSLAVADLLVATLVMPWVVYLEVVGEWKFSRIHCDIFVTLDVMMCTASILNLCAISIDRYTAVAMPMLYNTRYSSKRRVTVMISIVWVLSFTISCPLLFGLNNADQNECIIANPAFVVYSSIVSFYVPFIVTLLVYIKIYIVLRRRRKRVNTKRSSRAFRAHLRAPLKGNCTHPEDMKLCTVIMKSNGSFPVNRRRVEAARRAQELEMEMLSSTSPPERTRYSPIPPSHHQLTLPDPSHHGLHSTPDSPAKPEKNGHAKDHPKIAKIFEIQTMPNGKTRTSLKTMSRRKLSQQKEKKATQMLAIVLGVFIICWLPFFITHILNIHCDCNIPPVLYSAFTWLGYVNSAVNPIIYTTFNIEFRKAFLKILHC
T1 sequence (P14416 whole entry): as above
Sequence of D2L human dopamine receptors (P14416 whole entry): as above
Sequence of D3 dopamine receptor (DAR) (P35462 whole entry): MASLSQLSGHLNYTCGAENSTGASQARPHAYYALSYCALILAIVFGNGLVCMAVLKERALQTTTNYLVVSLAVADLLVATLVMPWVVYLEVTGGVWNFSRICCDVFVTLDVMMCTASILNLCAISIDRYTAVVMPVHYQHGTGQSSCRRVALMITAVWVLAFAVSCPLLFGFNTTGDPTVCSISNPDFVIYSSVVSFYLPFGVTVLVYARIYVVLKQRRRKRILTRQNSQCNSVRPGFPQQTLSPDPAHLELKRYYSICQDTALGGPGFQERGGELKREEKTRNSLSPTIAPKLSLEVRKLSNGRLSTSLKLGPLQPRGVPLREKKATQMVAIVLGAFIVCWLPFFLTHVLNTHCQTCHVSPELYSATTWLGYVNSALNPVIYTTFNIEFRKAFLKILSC
Sequence of D3 human dopamine receptors (P35462 whole entry): as above

CN1C(=O)c2ccccc2[S+]([O-])c2ccc(C(=O)NCCc3cccs3)cc21 (racemic) [Compound 32, 10-Methyl-11-oxo-N-(2-(thiophen-2-yl)ethyl)-10,11-dihydrodibenzo[b,f][1,4]thiazepine-8-carboxamide 5-oxide]
AC50 [1, 6]: < 1 µM
D3/D2 beta-arrestin IC50ratio [2]: 22.3
D3/D2 binding Ki ratio [3]: 28.7

CCN1C(=O)c2ccccc2[S+]([O-])c2ccc(C(=O)NCc3ccc(OC)cc3)cc21 (stereo not drawn) [Compound 1, 10-Ethyl-N-(4-methoxybenzyl)-11-oxo-10,11-dihydrodibenzo[b,f][1,4]thiazepine-8-carboxamide 5-oxide]
Ki [4]: 0.48 µM
AC50 [1, 6]: < 1 µM
AC50 ([1]; dose response curve, read-out: D2 Ca^2+ assay AC50): 0.281 µM
AC50 ([2]; dose response curve, read-out: D2 β-arrestin assay AC50): 2.89 µM
D3/D2 beta-arrestin IC50ratio [2]: 2.0
AC50 [5]: 5.76 µM
Ki [3]: 0.08 µM
D3/D2 binding Ki ratio [3]: 6.0

CCN1C(=O)c2ccccc2[S@+]([O-])c2ccc(C(=O)NCc3ccc(OC)cc3)cc21 [Compound 38, 10-Ethyl-N-(4-methoxybenzyl)-11-oxo-10,11-dihydrodibenzo[b,f][1,4]thiazepine-8-carboxamide 5-(S)-oxide]
AC50 [1, 6]: < 1 µM
D3/D2 beta-arrestin IC50ratio [2]: 2.5

CCN1C(=O)c2ccccc2[S@+]([O-])c2ccc(C(=O)NCc3ccc(F)cc3)cc21 [Compound 47, 10-Ethyl-N-(4-fluorobenzyl)-11-oxo-10,11-dihydrodibenzo[b,f][1,4]thiazepine-8-carboxamide 5-(S)-oxide]
AC50 [1, 6]: < 1 µM
D3/D2 beta-arrestin IC50ratio [2]: 5.6
D3/D2 binding Ki ratio [3]: 2.6

CCN1C(=O)c2ccccc2[S@+]([O-])c2ccc(C(=O)NCc3ccc(C#N)cc3)cc21 [Compound 48, N-(4-Cyanobenzyl)-10-ethyl-11-oxo-10,11-dihydrodibenzo[b,f][1,4]thiazepine-8-carboxamide 5-(S)-oxide]
AC50 [1, 6]: < 1 µM
D3/D2 beta-arrestin IC50ratio [2]: 6.3
D3/D2 binding Ki ratio [3]: 5.7

CCN1C(=O)c2ccccc2[S@+]([O-])c2ccc(C(=O)N[C@H](C)c3ccc(Br)cc3)cc21 [Compound 49, (R)-N-(1-(4-Bromophenyl)ethyl)-10-ethyl-11-oxo-10,11-dihydrodibenzo[b,f][1,4]thiazepine-8-carboxamide 5-(S)-oxide]
AC50 [1, 6]: < 1 µM
D3/D2 beta-arrestin IC50ratio [2]: 7.1
D3/D2 binding Ki ratio [3]: 1.3

CCN1C(=O)c2ccccc2[S@+]([O-])c2ccc(C(=O)N[C@H](C)c3ccc4ccccc4c3)cc21 [Compound 50, (R)-10-Ethyl-N-(1-(naphthalen-2-yl)ethyl)-11-oxo-10,11-dihydrodibenzo[b,f][1,4]thiazepine-8-carboxamide 5-(S)-oxide]
AC50 [1, 6]: < 1 µM
D3/D2 beta-arrestin IC50ratio [2]: 11.2
D3/D2 binding Ki ratio [3]: 16.2

CN1C(=O)c2ccccc2[S@+]([O-])c2ccc(C(=O)NCc3ccc(Cl)cc3)cc21 [Compound 51, N-(4-Chlorobenzyl)-10-methyl-11-oxo-10,11-dihydrodibenzo[b,f][1,4]thiazepine-8-carboxamide 5-(S)-oxide]
AC50 [1, 6]: < 1 µM
D3/D2 beta-arrestin IC50ratio [2]: 4.5

CN1C(=O)c2ccccc2[S@+]([O-])c2ccc(C(=O)NCc3ccc(Br)cc3)cc21 [Compound 52, N-(4-bromobenzyl)-10-methyl-11-oxo-10,11-dihydrodibenzo[b,f][1,4]thiazepine-8-carboxamide 5-(S)-oxide]
AC50 [1, 6]: < 1 µM
D3/D2 beta-arrestin IC50ratio [2]: 4.6
D3/D2 binding Ki ratio [3]: 1.5

CN1C(=O)c2ccccc2[S@+]([O-])c2ccc(C(=O)NCc3cccnc3)cc21 [Compound 53, 10-Methyl-11-oxo-N-(pyridin-3-ylmethyl)-10,11-dihydrodibenzo[b,f][1,4]thiazepine-8-carboxamide 5-(S)-oxide]
AC50 [1, 6]: < 1 µM
D3/D2 beta-arrestin IC50ratio [2]: 5.0
D3/D2 binding Ki ratio [3]: 70.0

CN1C(=O)c2ccccc2[S@+]([O-])c2ccc(C(=O)NCCN3CCCC3)cc21 [Compound 54, 10-Methyl-11-oxo-N-(2-(pyrrolidin-1-yl)ethyl)-10,11-dihydrodibenzo[b,f][1,4]thiazepine-8-carboxamide 5-(S)-oxide]
AC50 [1, 6]: < 1 µM
D3/D2 beta-arrestin IC50ratio [2]: 7.2
D3/D2 binding Ki ratio [3]: 1.7
